Test [1] deals with A-431. Put plainly: Cell cycle arrest in A431 cells by accumulation at G2/M phase cell at 0.1uM. It counts as functional. The settings on record: Homo sapiens.
Another test has as its target Tubulin (Bos taurus) (UniProt Q6B856+Q862L2+Q862F3). The settings on record: at 10 µM.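 Also: Read-out is polymerization of tubulin isolated from bovine brain, given as percent inhibition.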
For test [2], the system named is A-431. Put plainly: Cell cycle arrest in A431 cells by accumulation at G2/M phase cell. Conditions: Homo sapiens. The test is classed as functional, cell-based.

In general, inhibition refers to the percentage by which the read-out fell short of the control. The low end stands for a response near the control, the high end for a response far below the control. What is called EC50 is the midpoint of the concentration-response curve.

Description for Tubulin (Bos taurus): Inhibition of tubulin polymerization in bovine brain at 10 uM

In turn, `COc1ccc(CNc2n[nH]c(-c3cccnc3Nc3cc(OC)cc(OC)c3)n2)cc1` had an inhibition at 0.1 µM in the test on A-431 [1] of 22%. The compound further had an inhibition at Tubulin (Bos taurus) of 88%.

As for `COc1ccc(Nc2n[nH]c(-c3cccnc3Nc3cc(OC)cc(OC)c3)n2)cc1`, the inhibition at 0.1 µM in the test on A-431 [1] turned out to be 68%. Besides, the inhibition against Tubulin (Bos taurus) was found to be 73%. The same compound showed an EC50 in the test on A-431 [2] of 83 nM.

With `COc1cc(Nc2ncccc2-c2nc(Nc3cc(OC)ccc3OC)n[nH]2)cc(OC)c1`, in the test on A-431 [1], the inhibition at 0.1 µM was 20%. Besides, on Tubulin (Bos taurus), the inhibition was 33%. In addition, in the test with A-431 [2], the EC50 is > 10000 nM.

In the test on A-431 [1], `COc1cc(Nc2ncncc2-c2n[nH]c(Nc3ccc4c(c3)OCCO4)n2)cc(OC)c1` registered an inhibition at 0.1 µM of 68%. The same compound displayed an inhibition at Tubulin (Bos taurus) of 100%. In addition, the EC50 in the test with A-431 [2] stood at 53 nM.

As for `COc1cc(Nc2ncccc2-c2n[nH]c(Nc3ccc4c(c3)OCCO4)n2)cc(OC)c1`, 0.1 µM produced 83% inhibition in the test on A-431 [1]. The compound also showed an inhibition against Tubulin (Bos taurus) of 95%. Further, the EC50 with A-431 [2] was determined as 117 nM.

On to `COc1cc(Nc2ccncc2-c2n[nH]c(Nc3ccc4c(c3)OCCO4)n2)cc(OC)c1`, for which, in the test on A-431 [1], testing at 0.1 µM gave an inhibition of 77%. Also, the inhibition on Tubulin (Bos taurus) came out at 100%. The compound further displayed an EC50 in the test with A-431 [2] of 5.3 nM.

`COc1cc(Nc2n[nH]c(-c3cccnc3Nc3cc(OC)cc(OC)c3)n2)cc(OC)c1` displayed an inhibition against Tubulin (Bos taurus) of 45%.

Regarding `COc1cc(OC)cc(Oc2ncccc2-c2n[nH]c(N(C)c3ccncc3)n2)c1`, the inhibition at 0.1 µM in the test on A-431 [1] was 44%. For the same compound, the inhibition at Tubulin (Bos taurus) was found to be 68%.

On Tubulin (Bos taurus), `c1cncc(CCNc2ncccc2-c2n[nH]c(Nc3ccc4c(c3)OCCO4)n2)c1` came in with an inhibition of 23%.

As for `COc1ccc(/C=C\c2cc(OC)c(OC)c(OC)c2)cc1O` [COMBRETASTATIN A4], testing at 0.1 µM in the test on A-431 [1] gave an inhibition of 88%.

On Tubulin (Bos taurus), `COc1cc(Nc2ncccc2-c2nc(-c3cccc(OC)c3)n[nH]2)cc(OC)c1` displayed an inhibition of 15%.

Consider `COc1cc(Nc2ncccc2-c2n[nH]c(Nc3ccc(C#N)cc3)n2)cc(OC)c1`, for which the inhibition against Tubulin (Bos taurus) worked out at 34%.

`COc1cccc(CNc2n[nH]c(-c3cccnc3Oc3cc(OC)cc(OC)c3)n2)c1` had an inhibition at 0.1 µM in the test with A-431 [1] of 32%. On Tubulin (Bos taurus), this compound returned an inhibition of 100%.

In the test on A-431 [1], `COc1ccc(CNc2n[nH]c(-c3cccnc3Oc3cc(OC)cc(OC)c3)n2)cc1` returned an inhibition at 0.1 µM of 28%. At Tubulin (Bos taurus), this compound returned an inhibition of 86%.

In the test on A-431 [1], `COc1cc2c(c(OC)c1OC)-c1ccc(OC)c(=O)cc1[C@@H](NC(C)=O)CC2` [COLCHICINE] gave an inhibition at 0.1 µM of 80%. In the test with A-431 [2], this compound registered an EC50 of 2.8 nM.

`COc1cc(Nc2ncccc2-c2nc(Nc3ccc(OC)cc3OC)n[nH]2)cc(OC)c1` showed an inhibition at 0.1 µM in the test on A-431 [1] of 17%. The compound further came in with an inhibition against Tubulin (Bos taurus) of 47%.

In turn, `COc1cccc(Nc2n[nH]c(-c3cccnc3Nc3cccc(OC)c3)n2)c1` returned an inhibition against Tubulin (Bos taurus) of 9%.

In the case of `COc1cc(Nc2ncccc2-c2n[nH]c(Nc3cc(Cl)cc(Cl)c3)n2)cc(OC)c1`, on Tubulin (Bos taurus), the inhibition turned out to be 44%.

In turn, `O=C1CCCN1CCCNc1ncccc1-c1n[nH]c(Nc2ccc3c(c2)OCCO3)n1` displayed an inhibition against Tubulin (Bos taurus) of 21%.

Regarding `Fc1ccc(CNc2ncccc2-c2n[nH]c(Nc3ccc4c(c3)OCCO4)n2)cc1F`, 0.1 µM produced 32% inhibition in the test with A-431 [1]. The compound further displayed an inhibition at Tubulin (Bos taurus) of 84%.

Consider `COc1cccc(Nc2n[nH]c(-c3cccnc3Nc3ccccc3)n2)c1`, for which the inhibition on Tubulin (Bos taurus) was determined as 4%.

Take `Fc1ccc(CNc2ncccc2-c2n[nH]c(Nc3ccc4c(c3)OCO4)n2)cc1F`: at 0.1 µM the inhibition in the test on A-431 [1] was 23%. Also, the inhibition against Tubulin (Bos taurus) came out at 84%.

Take `COc1cccc(Cc2n[nH]c(-c3cccnc3Nc3cc(OC)cc(OC)c3)n2)c1`: the inhibition at Tubulin (Bos taurus) came to 9%.

In turn, `COc1cccc(Nc2n[nH]c(-c3cccnc3Nc3cc(F)cc(F)c3)n2)c1` yielded an inhibition on Tubulin (Bos taurus) of 0%.

As to `Fc1cc(F)cc(Nc2ncccc2-c2n[nH]c(Nc3ccc4c(c3)OCO4)n2)c1`, the inhibition on Tubulin (Bos taurus) is 28%.

The compound `COc1cc(Nc2ncccc2-c2n[nH]c(Nc3ccc(N(C)C)cc3)n2)cc(OC)c1` had an inhibition against Tubulin (Bos taurus) of 35%.

In the test on A-431 [1], `COc1ccc(CNc2ncccc2-c2n[nH]c(Nc3ccc4c(c3)OCCO4)n2)cc1` showed an inhibition at 0.1 µM of 30%. Besides, the inhibition at Tubulin (Bos taurus) was found to be 68%.

The values are drawn from ChEMBL document CHEMBL1141190, “Synthesis and structure-activity relationships of 1,2,4-triazoles as a novel class of potent tubulin polymerization inhibitors” (Bioorg Med Chem Lett, 2005).
